For orientation: solubility means the dissolved amount per volume that the medium holds.

Structures can show the parent of a compound that is named as a salt.

The values below come from patent publication US20260317367A1, “SALTS INCLUDING CRYSTALLINE SALTS OF 25-HYDROXY-CHOLEST-5-EN-3-SULFATE AND METHODS FOR PREPARING SAME” (Durect Corporation, priority 2022, published 2026).

What all share (type): physicochemical
Data set [1] can be described thus: X-ray powder diffraction before and after DVS (form stability). Conditions: 5% to 95% RH. The procedure:
XRPD patterns were collected with a PANalytical X'Pert PRO MPD or a PANalytical Empyrean diffractometer using an incident beam of Cu radiation produced using an Optix long, fine-focus source. An elliptically graded multilayer mirror was used to focus Cu Kα X-rays through the specimen and onto the detector. Prior to the analysis, a silicon specimen (NIST SRM 640f) was analyzed to verify the observed position of the Si 111 peak is consistent with the NIST-certified position. A specimen of the sample was sandwiched between 3-μm-thick films and analyzed in transmission geometry. A beam-stop, short antiscatter extension, and antiscatter knife edge were used to minimize the background generated by air. Soller slits for the incident and diffracted beams were used to minimize broadening and asymmetry from axial divergence. Diffraction patterns were collected using a scanning position-sensitive detector (X'Celerator) located 240 mm from the specimen and Data Collector software v. 5.5. All images have the instrument labeled as X'Pert PRO MPD regardless of the instrument used.
XRPD patterns were collected with a PANalytical X'Pert PRO MPD diffractometer using an incident beam of Cu Kα radiation produced using a long, fine-focus source and a nickel filter. The diffractometer was configured using the symmetric Bragg-Brentano geometry. Prior to the analysis, a silicon specimen (NIST SRM 640f) was analyzed to verify the observed position of the Si 111 peak is consistent with the NIST-certified position. A specimen of the sample was prepared as a thin, circular layer centered on a silicon zero-background substrate. Antiscatter slits (SS) were used to minimize the background generated by air. Soller slits for the incident and diffracted beams were used to minimize broadening from axial divergence. Diffraction patterns were collected using a scanning position-sensitive detector (X'Celerator) located 240 mm from the sample and Data Collector software v. 5.5
Dynamic vapor sorption data was collected on a Surface Measurement System DVS Intrinsic instrument. The samples were not dried prior to analysis. Sorption and desorption data were collected over a range from 5% to 95% RH in 10% RH increments under a nitrogen purge. The equilibrium criteria used for the analyses were 0.001 dm/dt weight change in 5 minutes with a minimum step time of 30 minutes and maximum equilibration time of 180 minutes with a 3 minute data logging interval. Data were not corrected for the initial moisture content of the sample.

Data set [2] can be described thus: Differential scanning calorimetry (DSC), thermal decomposition / endothermic transition. On the procedure: Differential scanning calorimetry (DSC) is a thermoanalytical technique where the difference in the amount of heat required to increase the temperature of a sample and reference is measured as a function of temperature. Using this technique, phase transitions of a sample can be measured such as melting point. Decomposition can also be observed by DSC as can dehydration events. In the context of DSC measurements, there is also variability and the term “about” means ±1° C., and such variability is to be understood whether a DSC measurement is prefaced by “about” or not unless specified otherwise. Exemplary methods for collecting DSC data are set forth in Example 21. Thermogravimetric analysis, sometimes referred to as, thermal gravimetric analysis (TGA) is a thermal method of thermal analysis where the mass of a sample is measured as a function of time as the sample temperature changes. For example, when samples disclosed herein are heated and a loss in mass is measured prior to decomposition, this is likely indicative of the loss of water from the sample and may indicate that the sample being heated is a hydrate. Exemplary methods for collecting TGA are set forth in Example 23.
DSC was performed using a Mettler-Toledo DSC3+ differential scanning calorimeter. A tau lag adjustment is performed with indium, tin, and zinc. The temperature and enthalpy are adjusted with octane, phenyl salicylate, indium, tin and zinc. The adjustment is then verified with octane, phenyl salicylate, indium, tin, and zinc. The sample was placed into a hermetically sealed aluminum DSC pan, and the weight was accurately recorded. The pan was then inserted into the DSC cell. A weighed aluminum pan configured as the sample pan was placed on the reference side of the cell. The pan lid was pierced prior to sample analysis. Samples were analyzed from 30° C. to 350° C. or 30° C. to 250° C., both at 10° C./min.
In general terms: Differential scanning calorimetry records heat flow against a reference as temperature is scanned.

The nature of data set [3]: Final pH of the solubility sample solutions in aqueous media. The settings on record: for pH of the solubility sample, 0.9% Sodium Chloride: 0.9% sodium chloride (blank 5.8); for pH of the solubility sample, 5% Dextrose: 5% dextrose (blank 4.7); for pH of the solubility sample, FaSSGF: FaSSGF (blank 1.5, 1.6); for pH of the solubility sample, FaSSIF: FaSSIF (blank 6.5, 6.5); for pH of the solubility sample, FeSSIF: FeSSIF (blank 4.9, 5.0); for pH of the solubility sample, Water: water (blank 6.3). On the procedure:
(§1) 25HC3S salts were weighed in 8 mL or 4 mL glass vials with Teflon coated screw caps. Aliquots of each solvent were added to each sample and vortexed for about one minute until excess solid remained. Samples were placed on shaker at room temperature with 210 motion per minute shaking.
(§2) After one day, samples were pulled and checked if excess solid was present. About 1.5 mL aliquot of each sample was centrifuged at 12000 rpm for 12 to 15 minutes. […] Aliquots of the top clear solution of each centrifuged sample in MeOH, EtOH, IPA and ACN were diluted with diluent (water:MeOH 95:5) and assayed by HPLC. Samples of the salts in aqueous media were assayed by HPLC without dilution.
5.1 Solubility of 25HC3S Salts in Aqueous Media

Data set [4] is described as follows: Appearance (color, clumping, flowability) of stored 25HC3S salts. On the procedure:
Approximately 25 mg of each crystalline 25HC3S salt was added to 20 mL glass vials and each powder weight was recorded. Four vials were prepared for each salt and stored at 2-8° C. or 80° C. according to Table B2. The samples were scheduled initially to pull for testing at 3 weeks and 6 weeks' time points.
For those […] salts, the remaining vials stored at 2-8° C. for 3 weeks were allocated for storage at 60° C. for 1 week. Additional stability data was generated according to Table B3.
For appearance, each unopened vial was visually examined for color, clumping, and flowability.

A short description of data set [5]: Solubility of 25HC3S salts after one day at room temperature (HPLC, as free acid). The settings on record: one day; for Solubility in FaSSGF: Fasted State Simulated Gastric Fluid, pH 1.6, room temperature, LOD 0.0007 mg/mL. On the procedure:
These fluids were prepared per the instruction listed by Biorelevant (Biorelevant.com). Each buffer concentrate was diluted with water and mixed well. FaSSIF, FeSSIF, FaSSGF powder was added to each buffer and mixed to completely dissolve the powder. Buffers were stored at room temperature and used within 48 hours of preparation.
as §1, §2
All solubility sample solutions of 25HC3S salts were determined using HPLC. A linear standard curve was constructed using standards with concentration between 11 μg/mL to 1.5 mg/mL as free acid forcing the curve to origin. Solubilities are reported as mg/mL free acid 25HC3S. Detection limit (LOD) of the HPLC method was calculated as 0.0007 mg/mL.

Setting [6] is: listed as 25HC3S hydroxyethylammonium.

As to `CC(CCCC(C)(C)O)C1CCC2C3CC=C4CC(OS(=O)(=O)O)CCC4(C)C3CCC12C` (stereo not shown) [Salt #1], the “Change of x-ray powder diffraction pattern after DVS (in words)” value in data set [1] (listed as crystalline 25HC3S potassium) is recorded as “not an appreciable change”. For the same molecule, the “Decomposition temperature (DSC)” value in data set [2] (DSC, 10° C./min, listed as crystalline 25HC3S potassium) amounted to 198 °C. The “First significant endothermic transition (DSC)” value in data set [2] (indicative of thermal degradation or solid-state transformation, listed as potassium) was approximately 198 °C. For the same molecule, in data set [3] (listed as 25HC3S potassium), the “pH of the solubility sample, 0.9% Sodium Chloride” value came to 8.4; the “pH of the solubility sample, 5% Dextrose” value amounted to 7.3; the “pH of the solubility sample, FaSSIF” value is on record as 6.5; the “pH of the solubility sample, Water” value worked out at 8.9. Besides, in data set [3], the “pH of the solubility sample, FaSSGF” value was determined as 1.6 and the “pH of the solubility sample, FeSSIF” value is reported as 5.0. For the same molecule, the “pH of solubility sample solution in water” value in data set [3] (water) worked out at 8.9. Further, the Appearance result in data set [4] (2-8° C., 3 wk, listed as 25HC3S potassium) was “White, free flowing powder with some”. In addition, in data set [4] (60° C., 1 wk (after 3 weeks at 2-8° C.), listed as 25HC3S potassium), the Appearance result is given as “White, free flowing powder with some”. In data set [4] (80° C.), the “Appearance after 3 weeks at 80° C.” value is on record as “completely burned”. The Appearance result in data set [4] (80° C., 3 wk, listed as 25HC3S potassium) is recorded as “Dark brown powder, stuck to bottom of”. Besides, the “Solubility in FaSSGF (in words)” value in data set [5] (room temperature, listed as crystalline 25HC3S potassium) is “low solubility”. The “Solubility in FaSSGF” value in data set [5] (as free acid, 1440 min) was 0.002 mg/mL. The “Solubility in saline / 0.9% sodium chloride (in words)” value in data set [5] (saline, room temperature, listed as crystalline 25HC3S potassium) is on record as “low solubility”.

Regarding `CC(CCCC(C)(C)O)C1CCC2C3CC=C4CC(OS(=O)(=O)O)CCC4(C)C3CCC12C` (stereo not shown) [Salt #5], the “Change of x-ray powder diffraction pattern after DVS (in words)” value in data set [1] (listed as crystalline 25HC3S hydroxyethylammonium) was “appearance of extra x-ray powder diffraction peaks”. In data set [3] (setting [6]), the “pH of the solubility sample, 0.9% Sodium Chloride” value came to 8.2; the “pH of the solubility sample, 5% Dextrose” value is listed as 7.0; the “pH of the solubility sample, Water” value came out at 8.6. Further, in data set [3], the “pH of the solubility sample, FaSSGF” value amounted to 1.6; the “pH of the solubility sample, FaSSIF” value was 6.6; the “pH of the solubility sample, FeSSIF” value amounted to 5.0. Also, the Appearance entry in data set [4] (2-8° C., 3 wk, listed as 25HC3S hydroxyethylammonium) is on record as “White, free flowing powder, no clumping”. In addition, the Appearance entry in data set [4] (60° C., 1 wk (after 3 weeks at 2-8° C.), listed as 25HC3S hydroxyethylammonium) is recorded as “Light brown, partially melted material”. Moreover, the “Appearance after 3 weeks at 80° C.” value in data set [4] (80° C.) was “completely burned”. The Appearance entry in data set [4] (80° C., 3 wk, listed as 25HC3S hydroxyethylammonium) was “Dark brown, partially melted material”. For the same molecule, in data set [5] (0.9% nacl, room temperature, as free acid, ND = not detected, detection limit 0.7 μg/mL, read-out: Solubility in 0.9% NaCl), the solubility at 24 h came out at 0.002 mg/mL. The “Solubility in 5% Dextrose” value in data set [5] (5% dextrose, room temperature, as free acid, ND = not detected, detection limit 0.7 μg/mL, 1440 min, listed as 25HC3S hydroxyethylammonium) is listed as 0.045 mg/mL. Moreover, the “Solubility in FaSSGF (in words)” value in data set [5] (room temperature, listed as crystalline 25HC3S hydroxyethylammonium) is given as “low solubility”. The “Solubility in FaSSIF” value in data set [5] (FaSSIF, room temperature, as free acid, 1440 min, listed as 25HC3S hydroxyethylammonium) was 0.107 mg/mL. For the same molecule, the “Solubility in FaSSGF” value in data set [5] (as free acid) was “no solubilized drug was detected”. Also, the “Solubility in FeSSIF” value in data set [5] (FeSSIF, room temperature, as free acid, 1440 min, listed as 25HC3S hydroxyethylammonium) came out at 0.718 mg/mL. Moreover, the “Solubility in methanol (in words)” value in data set [5] (MeOH, room temperature) is reported as “did not reach saturation”. In addition, in data set [5] (acetonitrile, room temperature, as free acid, 1440 min, listed as 25HC3S hydroxyethylammonium), the “Solubility in ACN” value was 0.2 mg/mL. Also, the “Solubility in EtOH” value in data set [5] (ethanol, room temperature, as free acid, ≥ = did not reach saturation, 1440 min, listed as 25HC3S hydroxyethylammonium) is given as not below 22.0 mg/mL. In addition, the “Solubility in IPA” value in data set [5] (isopropyl alcohol, room temperature, as free acid, 1440 min, listed as 25HC3S hydroxyethylammonium) is 3.7 mg/mL. Moreover, in data set [5] (methanol, room temperature, as free acid, ≥ = did not reach saturation, 1440 min, listed as 25HC3S hydroxyethylammonium), the “Solubility in MeOH” value is on record as not below 47.0 mg/mL. Moreover, in data set [5] (water, room temperature, as free acid, ND = not detected, detection limit 0.7 μg/mL, 1440 min, listed as 25HC3S hydroxyethylammonium), the “Solubility in H2O” value was found to be 0.043 mg/mL.
